From US20260265252A1, “SOLID STATE FORMS OF IMIPRIDONE DERIVATIVE” (CHIMERIX, INC., priority 2024, published 2026)
Where a name gives a salt, the structure may show the parent alone.

Experiment: ICH-compliant stability study of ONC206-HCl Drug Substance (appearance, XRPD form, HPLC assay, purity/impurities, water content, particle size, microbial)
Format: physicochemical
Set-up: key to Each unidentified impurity (NMT 0.5% area) / Appearance (White to off-white solid) / Polymorphic form (XRPD) (Consistent with form 2 reference diffractogram): C = Conforms; A = Absence
Description: The purpose of the ICH-compliant stability study was to evaluate the performance to specifications of ONC206-HCl Drug Substance under specified container closure configuration, storage conditions, and intervals.
The study was performed according to ICH Q1A(R2) and QlE Guidance documents. […]
The Container Closure Systems were: • Primary container: LDPE bag, 4×8 inches (Source: Nexus—64378); bag closure PE 180 nm (Source: Entourage), • Secondary container: LDPE bag, 4×8 inches (Source: Nexus—64378); bag closure PE 180 nm (Source: Entourage), • Tertiary container: Heat-sealed foil bag, 15×30 (Source: SERCALIA S.L.—10234), and • Outer container: Plastic drum, 6 L (Source: Curtec, HDPE ref 54021) or Plastic drum, 3.6 L (Source: Curtec).

[1] = 25 ± 2° C./60% ± 5% RH long term storage conditions, 0 months
[2] = 25 ± 2° C./60% ± 5% RH long term storage conditions, 3 months
[3] = 25 ± 2° C./60% ± 5% RH long term storage conditions, 6 months
[4] = 25 ± 2° C./60% ± 5% RH long term storage conditions, 9 months
[5] = 25 ± 2° C./60% ± 5% RH long term storage conditions, 12 months
[6] = 30 ± 2° C./65% ± 5% RH intermediate conditions, 0 months
[7] = 30 ± 2° C./65% ± 5% RH intermediate conditions, 6 months
[8] = 30 ± 2° C./65% ± 5% RH intermediate conditions, 9 months

period over which stability is confirmed (2-8° C. (Table 39)): 6 months
Appearance (White to off-white solid) (2-8° C., 0 months): C
Assay by HPLC-UV (Anhydrous & Solvent Free basis) 97.0-103.0% w/w (2-8° C., 0 months): 101.6 % w/w
Each unidentified impurity (NMT 0.5% area) (2-8° C., 0 months): C
Particle Size (Malvern) D10 (Report result μm) (2-8° C., 0 months): 28.2 μm
Particle Size (Malvern) D50 (Report result μm) (2-8° C., 0 months): 91.4 μm
Particle Size (Malvern) D90 (Report result μm) (2-8° C., 0 months): 201.3 μm
Polymorphic form (XRPD) (Consistent with form 2 reference diffractogram) (2-8° C., 0 months): C
Purity by HPLC (NLT 98.0% area) (2-8° C., 0 months): 100.0 % area
Total impurities (NMT 2.0% area) (2-8° C., 0 months): 0.00 % area
Water Content by Kf (Report result % w/w) (2-8° C., 0 months): 9.3 % w/w
Appearance (White to off-white solid) (2-8° C., 1 months): C
Assay by HPLC-UV (Anhydrous & Solvent Free basis) 97.0-103.0% w/w (2-8° C., 1 months): 101.3 % w/w
Each unidentified impurity (NMT 0.5% area) (2-8° C., 1 months): C
Particle Size (Malvern) D10 (Report result μm) (2-8° C., 1 months): 27.8 μm
Particle Size (Malvern) D50 (Report result μm) (2-8° C., 1 months): 89.8 μm
Particle Size (Malvern) D90 (Report result μm) (2-8° C., 1 months): 196.0 μm
Polymorphic form (XRPD) (Consistent with form 2 reference diffractogram) (2-8° C., 1 months): C
Purity by HPLC (NLT 98.0% area) (2-8° C., 1 months): 100.0 % area
Total impurities (NMT 2.0% area) (2-8° C., 1 months): 0.00 % area
Water Content by Kf (Report result % w/w) (2-8° C., 1 months): 9.2 % w/w
Appearance (White to off-white solid) (2-8° C., 2 months): C
Assay by HPLC-UV (Anhydrous & Solvent Free basis) 97.0-103.0% w/w (2-8° C., 2 months): 100.3 % w/w
Each unidentified impurity (NMT 0.5% area) (2-8° C., 2 months): C
Particle Size (Malvern) D10 (Report result μm) (2-8° C., 2 months): 29.4 μm
Particle Size (Malvern) D50 (Report result μm) (2-8° C., 2 months): 91.6 μm
Particle Size (Malvern) D90 (Report result μm) (2-8° C., 2 months): 189.0 μm
Polymorphic form (XRPD) (Consistent with form 2 reference diffractogram) (2-8° C., 2 months): C
Purity by HPLC (NLT 98.0% area) (2-8° C., 2 months): 100.0 % area
Total impurities (NMT 2.0% area) (2-8° C., 2 months): 0.00 % area
Water Content by Kf (Report result % w/w) (2-8° C., 2 months): 9.4 % w/w
Appearance (White to off-white solid) (2-8° C., 3 months): C
Assay by HPLC-UV (Anhydrous & Solvent Free basis) 97.0-103.0% w/w (2-8° C., 3 months): 100.3 % w/w
Each unidentified impurity (NMT 0.5% area) (2-8° C., 3 months): C
Particle Size (Malvern) D10 (Report result μm) (2-8° C., 3 months): 28.3 μm
Particle Size (Malvern) D50 (Report result μm) (2-8° C., 3 months): 90.9 μm
Particle Size (Malvern) D90 (Report result μm) (2-8° C., 3 months): 197.0 μm
Polymorphic form (XRPD) (Consistent with form 2 reference diffractogram) (2-8° C., 3 months): C
Purity by HPLC (NLT 98.0% area) (2-8° C., 3 months): 100.0 % area
Total impurities (NMT 2.0% area) (2-8° C., 3 months): 0.00 % area
Water Content by Kf (Report result % w/w) (2-8° C., 3 months): 9.5 % w/w
Appearance (White to off-white solid) (2-8° C., 6 months): C
Assay by HPLC-UV (Anhydrous & Solvent Free basis) 97.0-103.0% w/w (2-8° C., 6 months): 99.6 % w/w
Each unidentified impurity (NMT 0.5% area) (2-8° C., 6 months): C
Particle Size (Malvern) D10 (Report result μm) (2-8° C., 6 months): 28.3 μm
Particle Size (Malvern) D50 (Report result μm) (2-8° C., 6 months): 91.1 μm
Particle Size (Malvern) D90 (Report result μm) (2-8° C., 6 months): 199.0 μm
Polymorphic form (XRPD) (Consistent with form 2 reference diffractogram) (2-8° C., 6 months): C
Purity by HPLC (NLT 98.0% area) (2-8° C., 6 months): 100.0 % area
Total impurities (NMT 2.0% area) (2-8° C., 6 months): 0.00 % area
Water Content by Kf (Report result % w/w) (2-8° C., 6 months): 9.3 % w/w
period over which stability is confirmed (25° C. (Table 42), 60% RH long term storage conditions): 12 months
Appearance (White to off-white solid) [1]: C
Assay by HPLC-UV (Anhydrous & Solvent Free basis) 97.0-103.0% w/w [1]: 101.6 % w/w
Each unidentified impurity (NMT 0.5% area) [1]: C
Particle Size (Malvern) D10 (Report result μm) [1]: 28.2 μm
Particle Size (Malvern) D50 (Report result μm) [1]: 91.4 μm
Particle Size (Malvern) D90 (Report result μm) [1]: 201.3 μm
Polymorphic form (XRPD) (Consistent with form 2 reference diffractogram) [1]: C
Purity by HPLC (NLT 98.0% area) [1]: 100.0 % area
Total impurities (NMT 2.0% area) [1]: 0.00 % area
Water Content by Kf (Report result % w/w) [1]: 9.3 % w/w
Appearance (White to off-white solid) [2]: C
Assay by HPLC-UV (Anhydrous & Solvent Free basis) 97.0-103.0% w/w [2]: 99.1 % w/w
Each unidentified impurity (NMT 0.5% area) [2]: C
Particle Size (Malvern) D10 (Report result μm) [2]: 28.3 μm
Particle Size (Malvern) D50 (Report result μm) [2]: 91.4 μm
Particle Size (Malvern) D90 (Report result μm) [2]: 199.0 μm
Polymorphic form (XRPD) (Consistent with form 2 reference diffractogram) [2]: C
Purity by HPLC (NLT 98.0% area) [2]: 100.0 % area
Total impurities (NMT 2.0% area) [2]: 0.00 % area
Water Content by Kf (Report result % w/w) [2]: 9.5 % w/w
Appearance (White to off-white solid) [3]: C
Assay by HPLC-UV (Anhydrous & Solvent Free basis) 97.0-103.0% w/w [3]: 100.2 % w/w
Each unidentified impurity (NMT 0.5% area) [3]: C
Particle Size (Malvern) D10 (Report result μm) [3]: 26.8 μm
Particle Size (Malvern) D50 (Report result μm) [3]: 88.5 μm
Particle Size (Malvern) D90 (Report result μm) [3]: 196.0 μm
Polymorphic form (XRPD) (Consistent with form 2 reference diffractogram) [3]: C
Purity by HPLC (NLT 98.0% area) [3]: 100.0 % area
Total impurities (NMT 2.0% area) [3]: 0.00 % area
Water Content by Kf (Report result % w/w) [3]: 9.3 % w/w
Appearance (White to off-white solid) [4]: C
Assay by HPLC-UV (Anhydrous & Solvent Free basis) 97.0-103.0% w/w [4]: 100.4 % w/w
Each unidentified impurity (NMT 0.5% area) [4]: C
Particle Size (Malvern) D10 (Report result μm) [4]: 30.2 μm
Particle Size (Malvern) D50 (Report result μm) [4]: 92.2 μm
Particle Size (Malvern) D90 (Report result μm) [4]: 192.0 μm
Polymorphic form (XRPD) (Consistent with form 2 reference diffractogram) [4]: C
Purity by HPLC (NLT 98.0% area) [4]: 100.0 % area
Total impurities (NMT 2.0% area) [4]: 0.00 % area
Water Content by Kf (Report result % w/w) [4]: 9.3 % w/w
Appearance (White to off-white solid) [5]: C
Assay by HPLC-UV (Anhydrous & Solvent Free basis) 97.0-103.0% w/w [5]: 99.6 % w/w
Each unidentified impurity (NMT 0.5% area) [5]: C
Particle Size (Malvern) D10 (Report result μm) [5]: 28.1 μm
Particle Size (Malvern) D50 (Report result μm) [5]: 91.3 μm
Particle Size (Malvern) D90 (Report result μm) [5]: 203.0 μm
Polymorphic form (XRPD) (Consistent with form 2 reference diffractogram) [5]: C
Purity by HPLC (NLT 98.0% area) [5]: 100.0 % area
Total impurities (NMT 2.0% area) [5]: 0.00 % area
Water Content by Kf (Report result % w/w) [5]: 9.3 % w/w
period over which stability is confirmed (30° C. (Table 43), 65% RH intermediate conditions): 12 months
Appearance (White to off-white solid) [6]: C
Assay by HPLC-UV (Anhydrous & Solvent Free basis) 97.0-103.0% w/w [6]: 101.6 % w/w
Each unidentified impurity (NMT 0.5% area) [6]: C
Particle Size (Malvern) D10 (Report result μm) [6]: 28.2 μm
Particle Size (Malvern) D50 (Report result μm) [6]: 91.4 μm
Particle Size (Malvern) D90 (Report result μm) [6]: 201.3 μm
Polymorphic form (XRPD) (Consistent with form 2 reference diffractogram) [6]: C
Purity by HPLC (NLT 98.0% area) [6]: 100.0 % area
Total impurities (NMT 2.0% area) [6]: 0.00 % area
Water Content by Kf (Report result % w/w) [6]: 9.3 % w/w
Appearance (White to off-white solid) [7]: C
Assay by HPLC-UV (Anhydrous & Solvent Free basis) 97.0-103.0% w/w [7]: 99.2 % w/w
Each unidentified impurity (NMT 0.5% area) [7]: C
Particle Size (Malvern) D10 (Report result μm) [7]: 29.3 μm
Particle Size (Malvern) D50 (Report result μm) [7]: 92.1 μm
Particle Size (Malvern) D90 (Report result μm) [7]: 199.0 μm
Polymorphic form (XRPD) (Consistent with form 2 reference diffractogram) [7]: C
Purity by HPLC (NLT 98.0% area) [7]: 100.0 % area
Total impurities (NMT 2.0% area) [7]: 0.00 % area
Water Content by Kf (Report result % w/w) [7]: 9.3 % w/w
Appearance (White to off-white solid) [8]: C
Assay by HPLC-UV (Anhydrous & Solvent Free basis) 97.0-103.0% w/w [8]: 100.2 % w/w
Each unidentified impurity (NMT 0.5% area) [8]: C
SMILES: O=C1C2=C(CCN(Cc3ccccc3)C2)N2CCN=C2N1Cc1ccc(F)cc1F [ONC206-HCl, 7-benzyl-4-(2,4-difluorobenzyl)-2,4,6,7,8,9-hexahydroimidazo[1,2-a]pyrido[3,4-e]pyrimidin-5(1H)-one]
